Measurements reported in patent US7855213B2 (AstraZeneca AB, priority 2006, dated 2010).
Structures can show the parent of a compound that is named as a salt.

The compounds below were run against T1, human β-Secretase (Homo sapiens, UniProt P56817) (assay: TR-FRET assay).
T1 construct: The soluble part of the human β-Secretase (AA 1-AA 460) was cloned; made in house
Assay type: biochemical

T1 sequence (P56817 22-460): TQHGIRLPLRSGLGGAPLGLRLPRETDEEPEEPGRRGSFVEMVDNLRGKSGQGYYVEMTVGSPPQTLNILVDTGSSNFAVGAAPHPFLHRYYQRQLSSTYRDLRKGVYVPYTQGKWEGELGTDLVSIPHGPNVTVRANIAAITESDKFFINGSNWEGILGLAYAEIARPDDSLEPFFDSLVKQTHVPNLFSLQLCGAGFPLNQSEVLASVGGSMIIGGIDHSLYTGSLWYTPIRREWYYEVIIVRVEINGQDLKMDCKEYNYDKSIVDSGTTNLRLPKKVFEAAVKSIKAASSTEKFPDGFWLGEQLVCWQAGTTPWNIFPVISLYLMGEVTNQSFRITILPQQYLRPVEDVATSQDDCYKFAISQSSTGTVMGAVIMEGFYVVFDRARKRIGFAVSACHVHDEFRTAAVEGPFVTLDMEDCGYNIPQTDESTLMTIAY

Q: How did the IC50 turn out when NC1=NC(c2ccccc2)(c2ccccc2)c2ccccc21 [Example 1, 3,3-Diphenyl-3H-isoindol-1-ylamine] was run?
A: 9140 nM

Q: With COc1ccc(C2(c3cccc(-c4cccc(OC)c4)c3)N=C(N)c3ccccc32)cc1 (stereo not drawn) [Example 2, 3-(3′-Methoxy-biphenyl-3-yl)-3-(4-methoxy-phenyl)-3H-isoindol-1-ylamine trifluoroacetate] as the compound, how does the IC50 read?
A: 110 nM

Q: For COc1ccc(C2(c3ccc(OS(=O)(=O)C(F)(F)F)c(-c4cccc(OC)c4)c3)N=C(N)c3ccccc32)cc1 (stereo not drawn) [Example 3, Trifluoro-methanesulfonic acid 5-[3-amino-1-(4-methoxy-phenyl)-1H-isoindol-1-yl]-3′-methoxy-biphenyl-2-yl ester trifluoroacetate], which IC50 is on record?
A: 12000 nM

Q: Which IC50 does the source give for COc1ccc(C2(c3ccc(O)c(-c4cccc(OC)c4)c3)N=C(N)c3ccccc32)cc1 (stereo not drawn) [Example 4, 5-[3-Amino-1-(4-methoxy-phenyl)-1H-isoindol-1-yl]-3′-methoxy-biphenyl-2-ol trifluoroacetate] here?
A: 67 nM

Q: How did the IC50 turn out when NC1=NC(c2ccc(O)cc2)(c2ccc(O)cc2)c2ccccc21 [Example 6, 4,4′-(3-Amino-isoindole-1,1-diyl)-bis-phenol] was run?
A: 3520 nM

Q: For COc1ccc(C2(c3ccc(O)c(-c4cccnc4)c3)N=C(N)c3ccccc32)cc1 (stereo not drawn) [Example 7, 4-[3-Amino-1-(4-methoxy-phenyl)-1H-isoindol-1-yl]-2-pyridin-3-yl-phenol trifluoroacetate], which IC50 is on record?
A: 86 nM

Q: COc1ccc(C2(c3ccc(O)c(-c4cncnc4)c3)N=C(N)c3ccccc32)cc1 (stereo not drawn) [Example 8, 4-[3-Amino-1-(4-methoxy-phenyl)-1H-isoindol-1-yl]-2-pyrimidin-5-yl-phenol trifluoroacetate] was tested. Which IC50 did it give?
A: 40 nM

Q: COc1ccc(C2(c3cccc(-c4cccnc4)c3)N=C(N)c3ccccc32)cc1 (stereo not drawn) [Example 9, 3-(4-Methoxy-phenyl)-3-(3-pyridin-3-yl-phenyl)-3H-isoindol-1-ylamine trifluoroacetate] was tested. Which IC50 did it give?
A: 154 nM

Q: COc1ccc(C2(c3cccc(-c4cccnc4F)c3)N=C(N)c3ccccc32)cc1 (stereo not drawn) [Example 10, 3-[3-(2-Fluoro-pyridin-3-yl)-phenyl]-3-(4-methoxy-phenyl)-3H-isoindol-1-ylamine trifluoroacetate] was tested. Which IC50 did it give?
A: 78 nM

Q: How did the IC50 turn out when COc1ccc(C2(c3cccc(-c4cncc(OC)c4)c3)N=C(N)c3ccccc32)cc1 (stereo not drawn) [Example 12, 3-(4-Methoxy-phenyl)-3-[3-(5-methoxy-pyridin-3-yl)-phenyl]-3H-isoindol-1-ylamine trifluoroacetate] was run?
A: 68 nM

Q: With COc1ccc(C2(c3cccc(-c4cncnc4)c3)N=C(N)c3ccccc32)cc1 (stereo not drawn) [Example 13, 3-(4-Methoxy-phenyl)-3-(3-pyrimidin-5-yl-phenyl)-3H-isoindol-1-ylamine trifluoroacetate] as the compound, how does the IC50 read?
A: 106 nM

Q: For COc1ccc(C2(c3cccc(-c4cc(OC)cc(OS(C)(=O)=O)c4)c3)N=C(N)c3ccccc32)cc1 (stereo not drawn) [Example 14, Methanesulfonic acid 3′-[3-amino-1-(4-methoxy-phenyl)-1H-isoindol-1-yl]-5-methoxy-biphenyl-3-yl ester trifluoroacetate], which IC50 is on record?
A: 153 nM

Q: NC1=NC(c2cccc(-c3cccnc3F)c2)(c2ccc3c(c2)OCCO3)c2ccccc21 (stereo not drawn) [Example 15, 3-(2,3-Dihydrobenzo[b][1,4]dioxin-6-yl)-3-(3-(2-fluoropyridin-3-yl)phenyl)-3H-isoindol-1-amine trifluoroacetate] was tested. Which IC50 did it give?
A: 748 nM

Q: With COc1cncc(-c2cccc(C3(c4ccc5c(c4)OCCO5)N=C(N)c4ccccc43)c2)c1 (stereo not drawn) [Example 16, 3-(2,3-Dihydrobenzo[b][1,4]dioxin-6-yl)-3-(3-(5-methoxypyridin-3-yl)phenyl)-3H-isoindol-1-amine trifluoroacetate] as the compound, how does the IC50 read?
A: 425 nM

Q: How did the IC50 turn out when NC1=NC(c2cccc(-c3cccnc3)c2)(c2ccc3c(c2)OCCO3)c2ccccc21 (stereo not drawn) [Example 17, 3-(2,3-Dihydrobenzo[b][1,4]dioxin-6-yl)-3-(3-(pyridin-3-yl)phenyl)-3H-isoindol-1-amine trifluoroacetate] was run?
A: 1520 nM

Q: With NC1=NC(c2cccc(-c3cncnc3)c2)(c2ccc3c(c2)OCCO3)c2ccccc21 (stereo not drawn) [Example 18, 3-(2,3-Dihydrobenzo[b][1,4]dioxin-6-yl)-3-(3-(pyrimidin-5-yl)phenyl)-3H-isoindol-1-amine trifluoroacetate] as the compound, how does the IC50 read?
A: 593 nM

Q: With COc1ccc(C2(c3cccc(Br)c3)N=C(N)c3ccccc32)cc1C (stereo not drawn) [Example 19, 3-(3-Bromo-phenyl)-3-(4-methoxy-3-methyl-phenyl)-3H-isoindol-1-ylamine trifluoroacetate] as the compound, how does the IC50 read?
A: 1360 nM

Q: For COc1cccc(-c2cccc(C3(c4ccc(OC)c(C)c4)N=C(N)c4ccccc43)c2)c1 (stereo not drawn) [Example 20, 3-(3′-Methoxy-biphenyl-3-yl)-3-(4-methoxy-3-methyl-phenyl)-3H-isoindol-1-ylamine trifluoroacetate], which IC50 is on record?
A: 101 nM

Q: COc1cncc(-c2cccc(C3(c4ccc(OC)c(C)c4)N=C(N)c4ccccc43)c2)c1 (stereo not drawn) [Example 21, 3-(4-Methoxy-3-methyl-phenyl)-3-[3-(5-methoxy-pyridin-3-yl)-phenyl]-3H-isoindol-1-ylamine trifluoroacetate] was tested. Which IC50 did it give?
A: 42 nM

Q: With COc1ccc(C2(c3cccc(-c4cccnc4)c3)N=C(N)c3ccccc32)cc1C (stereo not drawn) [Example 22, 3-(4-Methoxy-3-methyl-phenyl)-3-(3-pyridin-3-yl-phenyl)-3H-isoindol-1-ylamine trifluoroacetate] as the compound, how does the IC50 read?
A: 145 nM

Q: COc1ccc(C2(c3cccc(-c4cncnc4)c3)N=C(N)c3ccccc32)cc1C (stereo not drawn) [Example 23, 3-(4-Methoxy-3-methyl-phenyl)-3-(3-pyrimidin-5-yl-phenyl)-3H-isoindol-1-ylamine trifluoroacetate] was tested. Which IC50 did it give?
A: 88 nM

Q: With COc1ccc(C2(c3cccc(-c4cccnc4F)c3)N=C(N)c3ccccc32)cc1C (stereo not drawn) [Example 24, 3-[3-(2-Fluoro-pyridin-3-yl)-phenyl]-3-(4-methoxy-3-methyl-phenyl)-3H-isoindol-1-ylamine trifluoroacetate] as the compound, how does the IC50 read?
A: 54 nM

Q: With COc1cc(OS(C)(=O)=O)cc(-c2cccc(C3(c4ccc(OC)c(C)c4)N=C(N)c4ccccc43)c2)c1 (stereo not drawn) [Example 25, Methanesulfonic acid 3′-[3-amino-1-(4-methoxy-3-methyl-phenyl)-1H-isoindol-1-yl]-5-methoxy-biphenyl-3-yl ester trifluoroacetate] as the compound, how does the IC50 read?
A: 86 nM

Q: For COc1cc(OS(C)(=O)=O)cc(-c2cccc(C3(c4ccc5c(c4)OCCO5)N=C(N)c4ccccc43)c2)c1 (stereo not drawn) [Example 26, 5′-(3-Amino-1-(2,3-dihydrobenzo[b][1,4]dioxin-6-yl)-1H-isoindol-1-yl)-5-methoxybiphenyl-3-yl methanesulfonate trifluoroacetate], which IC50 is on record?
A: 1280 nM

Q: COc1cccc(-c2cccc(C3(c4ccc5c(c4)OCCO5)N=C(N)c4ccccc43)c2)c1 (stereo not drawn) [Example 27, 3-(2,3-Dihydrobenzo[b][1,4]dioxin-6-yl)-3-(3′-methoxybiphenyl-3-yl)-3H-isoindol-1-amine trifluoroacetate] was tested. Which IC50 did it give?
A: 1060 nM

Q: NC1=NC(c2cccc(-c3cccnc3)c2)(c2ccc3c(c2)OCO3)c2ccccc21 (stereo not drawn) [Example 28, 3-Benzo[1,3]dioxol-5-yl-3-(3-pyridin-3-yl)-3H-isoindol-1-ylamine trifluoroacetate] was tested. Which IC50 did it give?
A: 1610 nM

Q: How did the IC50 turn out when NC1=NC(c2cccc(-c3cncnc3)c2)(c2ccc3c(c2)OCO3)c2ccccc21 (stereo not drawn) [Example 30, 3-Benzo[1,3]dioxol-5-yl-3-(3-pyrimidin-5-ylphenyl)-3H-isoindol-1-ylamine trifluoroacetate] was run?
A: 942 nM

Q: Which IC50 does the source give for NC1=NC(c2cccc(-c3cccnc3F)c2)(c2ccc3c(c2)OCO3)c2ccccc21 (stereo not drawn) [Example 31, 3-Benzo[1,3]dioxol-5-yl-3-[3-(2-fluoropyridin-3-yl)-phenyl]-3H-isoindol-1-ylamine trifluoroacetate] here?
A: 768 nM

Q: How did the IC50 turn out when COc1cncc(-c2cccc(C3(c4ccc5c(c4)OCO5)N=C(N)c4ccccc43)c2)c1 (stereo not drawn) [Example 32, 3-Benzo[1,3]dioxol-5-yl-3-[3-(5-methoxy-pyridin-3-yl)-phenyl]3H isoindol-1-ylamine trifluoroacetate] was run?
A: 708 nM

Q: Which IC50 does the source give for COc1cccc(-c2cccc(C3(c4ccc5c(c4)OCO5)N=C(N)c4ccccc43)c2)c1 (stereo not drawn) [Example 33, 3-Benzo[1,3]dioxol-5-yl-3-(3′-methoxy-biphenyl-3-yl)-3H-isoindol-1-ylamine trifluoroacetate] here?
A: 1330 nM

Q: With COc1cc(OS(C)(=O)=O)cc(-c2cccc(C3(c4ccc5c(c4)OCO5)N=C(N)c4ccccc43)c2)c1 (stereo not drawn) [Example 34, Methanesulfonic acid 3′-(3-amino-1-benzo[1,3]dioxol-5-yl-1H-isoindol-1-yl)-5-methoxy-biphenyl-3-yl ester trifluoroacetate] as the compound, how does the IC50 read?
A: 1090 nM

Q: How did the IC50 turn out when CS(=O)(=O)Oc1ccc(C2(c3cccc(-c4cccnc4)c3)N=C(N)c3ccccc32)cc1 (stereo not drawn) [Example 35, Methanesulfonic acid 4-[3-amino-1-(3-pyridin-3-yl-phenyl)-1H-isoindol-1-yl]-phenyl ester trifluoroacatete] was run?
A: 950 nM

Q: Which IC50 does the source give for CS(=O)(=O)Oc1ccc(C2(c3cccc(-c4cccnc4F)c3)N=C(N)c3ccccc32)cc1 (stereo not drawn) [Example 37, Methanesulfonic acid 4-{3-amino-1-[3-(2-fluoro-pyridin-3-yl)-phenyl]-1H-isoindol-1-yl}-phenyl ester trifluoroacetate] here?
A: 569 nM

Q: CS(=O)(=O)Oc1ccc(C2(c3cccc(-c4cncnc4)c3)N=C(N)c3ccccc32)cc1 (stereo not drawn) [Example 38, Methanesulfonic acid 4-[3-amino-1-(3-pyrimidin-5-yl-phenyl)-1H-isoindol-1-yl]-phenyl ester trifluoroacetate] was tested. Which IC50 did it give?
A: 706 nM

Q: For COc1cncc(-c2cccc(C3(c4ccc(OS(C)(=O)=O)cc4)N=C(N)c4ccccc43)c2)c1 (stereo not drawn) [Example 39, Methanesulfonic acid 4-{3-amino-1-[3-(5-methoxy-pyridin-3-yl)-phenyl]-1H-isoindol-1-yl}-phenyl ester trifluoroacetate], which IC50 is on record?
A: 350 nM

Q: Which IC50 does the source give for COc1cccc(-c2cccc(C3(c4ccc(OS(C)(=O)=O)cc4)N=C(N)c4ccccc43)c2)c1 (stereo not drawn) [Example 40, Methanesulfonic acid 4-[3-amino-1-(3′-methoxy-biphenyl-3-yl)-1H-isoindol-1-yl]-phenyl ester trifluoroaceate] here?
A: 570 nM
